In patent US7074959B2, “Methods and systems for remediating hydrazine-contaminated equipment and/or surfaces” (New Mexico Highlands University, priority 2002, dated 2006):

How the values were obtained:
[1] = solubility of the hydrazine/2-ketoglutaric acid adduct in water; type: physicochemical; settings: allows separation of most of the adduct by simple filtration
Excerpt: FIG. 3 illustrates a schematic diagram 300 depicting a reaction of 2-ketoglutataric acid, which provides a near quantitative conversion of hydrazine to a 6-oxo-1,4,5,6-tetrahydro-pyridazine-3-carbonic acid, a preferred embodiment of the present invention. In general, the chemical transformation depicted in schematic diagram 300 of FIG. 3 allows for the removal of hydrazine from aqueous solutions generated by the decontamination processes described herein. The reaction with concentrated hydrazine also can provide the desired product with some evolution of heat.

[2] = MSDS listing; cited from earlier work

In the case of `O=C1CCC(C(=O)O)=NN1` [6-oxo-1,4,5,6-tetrahydro-pyridazine-3-carbonic acid], the solubility in water [1] is listed as “low solubility” and the “known acute toxicities listed in MSDS” value [2] is listed as “does not list any known acute toxicities”.
